Test results as given in PubChem BioAssay AID2305 (GlaxoSmithKline (GSK), 2010).

Test system: P. falciparum 3D7 growth, pLDH absorbance
Test: blood-stage malaria parasite growth potency – strain 3D7, dose response (AID 2305)

| SMILES | IC50 |
| --- | --- |
| COc1ccccc1N1CCN(c2cccc(F)c2C#N)CC1 | 960 nM |
| Oc1cccc(Nc2nc(NCC3CCCO3)c3ccccc3n2)c1 (configuration not stated) | 810 nM |
| O=C(Nc1nc2cc(S(=O)(=O)NCc3ccc(Cl)c(Cl)c3)ccc2n1CCCN1CCCC1)c1ccc(Cl)cc1 | 940 nM |
| COc1ccc(CCNCCCCCCNCCc2ccccc2Cl)cc1OC | 660 nM |
| OCC1CCCCN1Cc1cccc(-c2cccc(-c3nc4ccccc4[nH]3)c2)c1 (configuration not stated) | 780 nM |
| CCCCNC(=O)c1[nH]c2c(NC(=O)COc3ccccc3)cccc2c1-c1cccc(NC(=O)C(N)CO)c1 (configuration not stated) | 850 nM |
| COc1ccc(NC(=O)CCNc2cc(C)nc(NCCOc3ccccc3)n2)cc1 | 750 nM |
| Nc1ccc2[nH]cc(C3CCN(CC4CCC(NC(=O)/C=C/c5ccccc5Cl)CC4)CC3)c2n1 (configuration not stated) | 690 nM |
| CN(C)CCOc1ccc(-c2cc(-c3ccncc3)c(-c3ccc(Cl)c(O)c3)o2)cc1 | 210 nM |
| CS(=O)(=O)c1cccc2sc(N3CCN(C(=O)c4ccc([N+](=O)[O-])o4)CC3)nc12 | 1240 nM |
| N#CC1(CCCNCCc2ccc(O)cc2)CCCc2c(O)cccc21 (configuration not stated) | 760 nM |
| CC(C)(C)c1ccc(CN2CCC(CNC(=O)c3cc(-c4ccccc4F)cs3)C2)cc1 (configuration not stated) | 560 nM |
| Nc1ccnc(N2CCC(CCOc3ccnc4cc(Cl)ccc34)CC2)c1 | 1160 nM |
| COc1ccc(C(=O)N[C@@H](CC(C)C)C(=O)NC2CC[C@@H](C)N(C(=O)Nc3ccc(Cl)cc3)CC2=O)cc1OCCN1CCOCC1 (some centres not stated) | 150 nM |
| COc1ccc2nccc(N3CCN(CCNCc4ccc5c(n4)NC(=O)CS5)CC3)c2c1 | 950 nM |
| CCc1cn2c3c(cc(C(=O)N[C@@H](Cc4ccccc4)[C@H](O)CNCc4ccc(C)cc4)cc13)N(C)S(=O)(=O)CC2 | 550 nM |
| O=C(NCCCN1CCOCC1)c1csc(Nc2ccc(Cl)c(Cl)c2)n1 | 920 nM |
| COc1ccc(NC(=O)Nc2ccc(-c3ccccc3)cc2)cc1Cn1nc(Cl)c(N2CCCNCC2)cc1=O | 360 nM |
| CC(=O)N(C)c1ccc(C(=O)Nc2cccc(-c3cccc(-c4nc5ccc(C(F)(F)F)cc5[nH]4)c3)c2)cc1 | 310 nM |
| O=C(C=Cc1ccc(F)cc1)N1CCN(S(=O)(=O)c2ccc(Cl)cc2)CC1 | 630 nM |
| CCNC(=O)CCc1cccc(Br)c1 | 530 nM |
| O=C(Nc1cccc(CN2CCCN(CC3CC3)CC2)c1)c1ccc(Cl)c(Cl)c1 | 1030 nM |
| O=C(Nc1ccc(Cl)c(Cl)c1)Nc1ccc(F)c([N+](=O)[O-])c1 | 700 nM |
| O=C(Nc1cccc(-c2nn3ncccc3c2-c2ccnc(Nc3cccc(-c4cnco4)c3)n2)c1)c1c(F)cccc1F | 170 nM |
| Cc1sc(N2CCCCC2)nc1C(=O)Nc1ccc(F)cc1C(F)(F)F | 1150 nM |

| SMILES | IC50 |
| --- | --- |
| CCCCCCCN1CC[C@@H](CCCc2ccnc3ccc(OCCN4CCNCC4)cc23)[C@@H](CC)C1 | 770 nM |
| c1ccc2c(Nc3ccc(OCCOCCOc4ccc(Nc5c6ccccc6nc6ccccc56)cc4)cc3)c3ccccc3nc2c1 | 280 nM |
| COc1cc2nc(N3CCC(CNC(=O)c4ccc(-c5ccc(C(=O)N(C)C)cc5OCCN(C)C)cc4)CC3)nc(N)c2cc1OC | 840 nM |
| NC1CCN(c2nc(NCCCc3ccc(O)cc3)nc(NCc3ccccc3-c3ccc(C(F)(F)F)cc3)n2)CC1 | 730 nM |
| Cc1cc(NCCC(=O)Nc2ccccc2)nc(NCCc2ccc(F)cc2)n1 | 1130 nM |
| CCC(C)(C)C1CCc2[nH]c3ccccc3c(=O)c2C1 (configuration not stated) | 380 nM |
| CCc1ccc(S(=O)(=O)Nc2cccc(CCN3CCC(N4CCCCC4)CC3)c2)cc1 | 900 nM |
| CC1(C)CCCN(c2ncc(-c3cccc(CNCc4ccccc4O)c3)cn2)C1 | 890 nM |
| Cc1ccc(C(=O)Nc2ccc(Nc3ccnc4cc(-c5ccccn5)ccc34)cc2O)cc1 | 110 nM |
| N#Cc1ccc2c(c1)CCN(CCC1CCC(NC(=O)/C=C/c3ccc(F)c4ccccc34)CC1)CC2 (configuration not stated) | 840 nM |
| CC1Cc2ccccc2N1S(=O)(=O)c1cc(OCC(F)(F)F)ccc1OCC(F)(F)F (configuration not stated) | 650 nM |
| CCN(C(=O)NC)[C@@H]1c2cc(C#N)ccc2OC(C)(C)[C@H]1O | 300 nM |
| Cc1cccc2[nH]c(-c3ccc(-c4ccc(CN5CCCC(O)C5)cc4)s3)nc12 (configuration not stated) | 830 nM |
| CC(C)N1CCCN(C(=O)C2CCN(c3ccc(C(=O)N4CCCC4)cn3)CC2)CC1 | 1060 nM |
| CCN(CC)CCNC(=O)c1ccc(NC(=O)c2oc3c(Cl)cccc3c2C)cc1 | 700 nM |
| Cc1cc(C2CCN(CCCCNC(=O)c3ccc(NC(=O)c4ccc(Cl)cc4)cc3)CC2)c(C)cc1OCc1ccncc1 | 500 nM |
| NC(N)=Nc1nc(-c2ccc(NCc3ccc(CNc4cccc(-c5csc(N=C(N)N)n5)c4)cc3)cc2)cs1 | 310 nM |
| CCCCCCC(CC)c1cc(O)c2c(c1)OC(C)(C)c1ccncc1-2 (configuration not stated) | 810 nM |
| CCN(Cc1ccc(-c2ccc(C(F)(F)F)cc2)cc1)C(=O)Cn1c(SCc2cccc(F)c2F)cc(=O)c2cc(CN3CCCCC3)ccc21 | 800 nM |
| Cc1ccc2nc(C)cc(NN=Cc3ccccc3[N+](=O)[O-])c2c1 | 170 nM |
| COc1cc2nc(NCCc3ccccc3)nc(NCc3cnn(C)c3C)c2cc1OC | 710 nM |
| Cc1nc2c(s1)c(=O)cc(CCc1cccc(F)c1F)n2CC(=O)N(Cc1ccc(-c2ccc(C(F)(F)F)cc2)cc1)C1CCN(C(C)C)CC1 | 770 nM |
| CN(C)C(=O)CC(=O)NCc1c(Cl)cccc1Cl | 200 nM |
| COc1ccc2nccc([C@@H](O)CN3CCC(NC(=O)C(=O)c4c[nH]c5c(C)cccc45)CC3)c2c1 | 310 nM |
| CC(=O)c1ccc2c(c1)CCN(CCC1CCC(NC(=O)c3cc4ccccc4[nH]3)CC1)CC2 (configuration not stated) | 980 nM |

| SMILES | IC50 |
| --- | --- |
| CCC(C)CN1CCCN(c2ccc(NC(=O)c3cccs3)cc2)CC1 (configuration not stated) | 800 nM |
| Cc1cc2nc(-c3ccc(C(=O)NCc4ccc(C(C)(C)C)cc4)cc3)[nH]c2cc1C | 770 nM |
| COc1ccc(CCNCCCCCCNCCc2cccc([N+](=O)[O-])c2)cc1OC | 1000 nM |
| Cc1cccc(N2CCN(C3CCC(NC(=O)c4cc5ccccc5[nH]4)CC3)CC2)c1C (configuration not stated) | 610 nM |
| Cc1cccc2[nH]c(-c3ccc(-c4cccc(NC(=O)c5ccncc5)c4)cc3)nc12 | 840 nM |
| CN(C)C(=S)N=Nc1c(O)[nH]c2ccc(OC(F)(F)F)cc12 | 1020 nM |
| O=C(/C=C/c1ccc(Cl)cc1)NCCCCCN1CCC(c2c[nH]c3ccccc23)CC1 | 840 nM |
| COC(=O)c1cccc(CNCc2ccc(-c3cccc(-c4nc5c(C)cccc5[nH]4)c3)cc2)c1 | 310 nM |
| CCOC(=O)c1ccc(NC(=O)N(Cc2ccc(-c3ccc(CN4CCNCC4)cc3)cc2)C2CCN(Cc3ccccc3)CC2)cc1 | 800 nM |
| CN1CCCN(Cc2cccc(-c3cccc(NC(=O)c4ccc(C#N)cc4)c3)c2)CC1 | 1140 nM |
| O=C([C@H]1C[C@@H]1c1ccccc1)N(Cc1ccc(-c2ccc(CNCCc3ccccc3)cc2)cc1)C1CCNCC1 | 1110 nM |
| Cc1cc(NC(=O)c2ccco2)ccc1OC1CCN(Cc2ccccc2)CC1 | 530 nM |
| Cc1ccccc1Nc1nc(NCc2ccccc2)nc2ccccc12 | 1020 nM |
| O=C(NCCN1CCCC1)c1cccc(-c2ccc(-c3nc4ccccc4[nH]3)cc2)c1 | 920 nM |
| Cc1nc2ccc(NC(=O)Nc3ccnc4ccc(C(F)(F)F)cc34)cc2o1 | 910 nM |
| COc1cc2nc(NCCc3cccc(Cl)c3)nc(NCc3ccccc3)c2cc1OC | 120 nM |
| Fc1ccccc1C=NNc1ccnc2ccccc12 | 890 nM |
| CC(C)CN1C(=O)c2ccc(C(=O)Nc3nccs3)cc2C1=O | 970 nM |
| Cc1cc(C(=O)Nc2ccc3c(c2)CCN3C2CCN(Cc3csc4ccccc34)C2)no1 (configuration not stated) | 120 nM |
| CS(=O)(=O)NCCCNCc1ccc(-c2ccc(-c3nc4ccc(C(F)(F)F)cc4[nH]3)s2)cc1 | 510 nM |
| CC(C)N1CCC(NCc2ccc(-c3ccc(Cl)cc3)cc2)CC1 | 650 nM |
| CCOC(=O)CCCc1cc(NC2CCN(C)CC2)nc(Nc2ccc(OC)cc2)n1 | 700 nM |
| CCN(CC)S(=O)(=O)c1ccc(C=CC(=O)Nc2cc(Cl)ccc2N2CCOCC2)cc1 | 920 nM |
| CC(C)N1CCC(N(Cc2ccc(-c3ccc(C(F)(F)F)cc3)cc2)C(=O)Cn2c(SCc3cccc(F)c3F)cc(=O)c3c2CCC3)CC1 | 1160 nM |
| CCCCC/C=C/C(=O)NC1CCC(CN2CCC(c3c[nH]c4ccccc34)CC2)CC1 (configuration not stated) | 980 nM |

| SMILES | IC50 |
| --- | --- |
| C[C@@H](COc1ccccc1)NCC(O)c1ccc([N+](=O)[O-])c(OCc2ccccc2)c1 (some centres not stated) | 990 nM |
| Cc1nnc2c(NC(=O)/C=C/c3ccc(OC(F)(F)F)cc3)cc3cc(Cl)ccc3n12 | 170 nM |
| CC(C)CNCc1cccc(-c2cccc(CN(CCCN3CCN(C)CC3)C(=O)Nc3ccccc3)c2)c1 | 1150 nM |
| CC1(C)N=C(NC(=O)c2cc([N+](=O)[O-])cc([N+](=O)[O-])c2)N=C(N)N1OCc1cccc2ccccc12 | 10 nM |
| COCCNCC(O)Cn1c2ccc(Cl)cc2c2cc(Cl)ccc21 (configuration not stated) | 50 nM |
| Clc1ncnc2scc(-c3ccc(Br)cc3)c12 | 890 nM |
| COC(=O)c1cccc(CNCc2ccc(-c3cccc(-c4nc5ccccc5[nH]4)c3)cc2)c1 | 260 nM |
| COc1ccc(C(=O)C2CCN(CCCCNC(=O)c3ccc(NC(=O)c4cc(Cl)cc(Cl)c4)cc3)CC2)cc1 | 170 nM |
| CCOc1cccc(C(=O)Nc2cccc(CN3CCCN(Cc4ccc(O)cc4)CC3)c2)c1 | 820 nM |
| CC(C)CNC(=O)c1cncc(-c2cccc(CNC3Cc4ccccc4C3)c2)c1 | 790 nM |
| OCCN1CCN(C(=S)NC2CCCCC2)CC1 | 1100 nM |
| Cn1nccc1C(=O)NCCNCc1cccc(-c2cccc(-c3nc4ccc(F)cc4[nH]3)c2)c1 | 260 nM |
| COc1ccccc1CCNc1nc(C)cc(N[C@@H](CC(C)C)C(=O)NCc2cccc(F)c2)n1 | 970 nM |
| O=C(/C=C/c1ccc(Cl)c(Cl)c1)NCCCCCN1CCC(NC(=O)Nc2cc(Cl)nc(Cl)c2)CC1 | 980 nM |
| CCOc1ccccc1CNc1nccc(NCc2ccccc2OC)n1 | 1490 nM |
| COc1nc(NCC(C)C)nc(Oc2ccc(=O)n(Cc3ccccc3)n2)n1 | 630 nM |
| CCN(CC)CCN(Cc1ccc(-c2ccc(C(F)(F)F)cc2)cc1)C(=O)Cn1c(SCc2ccc(F)cc2)nc(=O)c2ccccc21 | 770 nM |
| Nc1nc(N)c2cc(Sc3ccc4ccccc4c3)ccc2n1 | 20 nM |
| NC(N)=NN=CC(=O)Nc1ccc(C(F)(F)F)cc1 | 930 nM |
| COC(=O)/C=C/c1ccc(CC(C)NCC(O)c2cccc(C(F)(F)F)c2)cc1 (configuration not stated) | 770 nM |
| O=C(Cc1cnc[nH]1)Nc1cccc(-c2cccc(-c3nc4ccc(F)cc4[nH]3)c2)c1 | 780 nM |
| CC(=O)N(Cc1cccc(-c2cccc(CNCc3ccc4c(c3)OCO4)c2)c1)C1CCN(Cc2ccccc2)CC1 | 840 nM |
